Values belong to the compound of their own block, whether it stands above or below them. The star is where a group is joined. AMC = Cc1cc(=O)oc2cc(N*)ccc12
Key:
Type in all cases: biochemical
[1] = molecular target: T1, interleukin-1β converting enzyme (Homo sapiens, UniProt P29466); test: Direct spectrophotometric assay of ICE activity of DEAE-purified THP-1 cell lysate (Example 2); design: THP-1 cell lysate purified approximately 100-fold using DEAE-anion exchange chromatography; endogenous in cells; host or cells: THP-1 cells (lysate, about 100-fold DEAE-purified); conditions: 25 °C, pH 7.5
T1 sequence (P29466 120-297 limits assumed): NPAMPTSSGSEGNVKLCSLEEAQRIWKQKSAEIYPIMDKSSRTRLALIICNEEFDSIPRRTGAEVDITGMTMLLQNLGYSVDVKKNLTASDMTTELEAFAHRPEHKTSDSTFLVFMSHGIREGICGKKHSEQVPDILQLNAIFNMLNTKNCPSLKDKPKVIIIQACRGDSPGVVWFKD
T1 sequence (P29466 317-404 limits assumed): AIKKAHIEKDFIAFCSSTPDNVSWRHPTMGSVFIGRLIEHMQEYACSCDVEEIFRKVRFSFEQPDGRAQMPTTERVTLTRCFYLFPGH
Procedure: Direct Assay: Interleukin 1β activity of Activity of DEAE-purified THP-1 cell lysate. Enzyme: THP-1 cell lysate purified approximately 100-fold using DEAE-anion exchange chromatography stock concentration = 5 units/ul (a unit is defined as the amount of enzyme required to produce 1 pmole of p-NA/min at 25 degrees using saturating levels of substrate. p-NA is para-nitroanaline.
Substrate: Ac-Tyr-Val-Ala-Asp-p-NA 5 mM stock solution in DMSO
(§1) Buffer: 100 mM Hepes 10% sucrose 0.1% Chaps 1 mM DTT 1 mg/ml BSA pH 7.5
At 25 ° C, […] of Buffer as defined above.
Reaction is monitored continuously in a Cary 219 spectrophotometer at a wavelength of 410 nm. Results: The rate of the reaction under these conditions is 0.005 absorbance units/min, corresponding to 0.5 uM pNA produced/min.

[2] = molecular target: T1, interleukin-1β converting enzyme; test: Coupled fluorometric assay of ICE activity of DEAE-purified THP-1 cell lysate with leucine aminopeptidase (LAPM) (Example 3); design: THP-1 cell lysate purified approximately 100-fold using DEAE-anion exchange chromatography; endogenous in cells; host or cells: THP-1 cells (lysate, about 100-fold DEAE-purified); The coupling enzyme LAPM was purchased from Sigma, No. L-0632, and comes from porcine kidney microsomes; conditions: 25 C
Procedure: Coupled Assay: Interleukin 1β activity of Activity of DEAE-purified THP-1 cell lysate.
Enzyme: THP-1 cell lysate purified approximately 100-fold using DEAE-anion exchange chromatography stock concentration = 5 units/ul (a unit is defined as the amount of enzyme required to produce 1 pmole of AMC/min at 25 degrees using saturating levels of substrate ( = 50 uM).
Coupling Enzyme: Leucine Aminopetidase Microsomal (Type IV) (LAPM) (purified from porcine kidney microsomes) EC 3.4.11.2 Sigma No. L-0632 12.5 units/ml stock solution in DMSO
Substrate: Ac-Tyr-Val-Ala-Asp-Gly-AMC 5 mM stock solution in DMSO
as §1
At 25 C, 5µl of substrate 50 µl of LAPM, 5µl of ICE were added to 440 µl of buffer. Reaction is monitored continuously in a Gilford Fluoro-IV Spectrofluorometer. excitation wavelength = 380 nm emission wavelength = 460 nm 1 uM AMC = 100% relative fluoroescence

[3] = molecular target: T1, interleukin-1β converting enzyme; test: Direct fluorometric assay of ICE activity of DEAE-purified THP-1 cell lysate in the presence of an enzyme inhibitor (Example 1B); design: THP-1 cell lysate purified approximately 100-fold using DEAE-anion exchange chromatography; endogenous in cells; host or cells: THP-1 cells (lysate, about 100-fold DEAE-purified); conditions: 25 °C
Procedure: Direct Assay: Interleukin 1β activity of Activity of DEAE-purified THP-1 cell lysate in the presence of an enzyme inhibitor.
(§2) Enzyme: THP-1 cell lysate purified approximately 100-fold using DEAE-anion exchange chromatography stock concentration = 5 units/ul (a unit is defined as the amount of enzyme required to produce 1 pmole of AMC/min at 25 degrees using saturating levels of substrate (> = 50 µM).
Substrate: Ac-Tyr-Val-Ala-Asp-AMC 5 mM stock solution in DMSO
as §1
Sample: compound Z (i.e. N-(N-acetyl-tyrosinylvalinyl-alaninyl)-3-amino-4-oxo butanoic acid) 2µM in H20
At 25 ° C, 5µl of substrate 5µl of enzyme and 5µl of sample were added to 485 µl of Buffer as defined above.
Liberation of AMC was monitored using a Gilford Fluoro IV Spectrofluorometer using an excitation wavelength of 380 nm and an emmission wavelength of 460nm. 1µM AMC = 100% relative fluoroscence.

[4] = molecular target: T1, interleukin-1β converting enzyme; test: Direct fluorometric assay of ICE activity of DEAE-purified THP-1 cell lysate (Example 1A); design: THP-1 cell lysate purified approximately 100-fold using DEAE-anion exchange chromatography; endogenous in cells; host or cells: THP-1 cells (lysate, about 100-fold DEAE-purified); conditions: substrate cleavage, 25 °C, pH 7.5, 5 µl of 5 mM substrate and 5 µl enzyme (5 units/ul) in 490 µl buffer
Procedure: Direct Assay: Interleukin 1β activity of Activity of DEAE-purified THP-1 cell lysate.
as §2
Substrate: N-(N-Acetyl-Tyrosinyl)-Valinyl-alaninylaspartic acid 7-amino-4-methylcoumarin amide (i.e. Ac-Tyr-Val-Ala-Asp-AMC) 5 mM stock solution in DMSO
Buffer: 100 mM Hepes 10% sucrose 0.1% Chaps 1 mM DTT 1 mg/ml BSA pH 7.5 At 25 ° C, 5µl of substrate and 5µl of enzyme was added to 490 µl of Buffer as defined above.
Liberation of 7-Amino-4-methylcoumarin (AMC) was monitored using a Gilford Fluoro IV Spectrofluorometer using an excitation wavelength of 380 nm and an emmission wavelength of 460nm. 1µM AMC = 100% relative fluoroscence.

[5] = 5 µl of sample 2µM in 500 µl, substrate Ac-Tyr-Val-Ala-Asp-AMC

- rate of the reaction (pNA produced) ([1]; corresponding to the absorbance rate at 410 nm): 0.5 uM pNA produced/min
- rate of the reaction ([1]; substrate cleavage monitored at 410 nm, 5 mM substrate stock): 0.005 absorbance units/min
Compound: CC(=O)N[C@@H](Cc1ccc(O)cc1)C(=O)N[C@H](C(=O)N[C@@H](C)C(=O)N[C@@H](CC(=O)O)C(=O)Nc1ccc([N+](=O)[O-])cc1)C(C)C [Ac-Tyr-Val-Ala-Asp-p-NA]

Compound: N-(N-Acetyl-tyrosinyl-valinyl-alaninyl-aspartylglycinyl)-7-amino-4-methylcoumarin (Ac-YVADG-{AMC}; SMILES CC(=O)N[C@@H](Cc1ccc(O)cc1)C(=O)N[C@H](C(=O)N[C@@H](C)C(=O)N[C@@H](CC(=O)O)C(=O)NCC(=O)Nc1ccc2c(C)cc(=O)oc2c1)C(C)C) [Ac-Tyr-Val-Ala-Asp-Gly-AMC]
- time required to reach 99% of the steady state of the ICE reaction ([2]; 7 x t 1/2, coupled assay with LAPM): 11 min
- velocity of the steady state reaction ([2]; coupled assay with LAPM, 5 µl of 5 mM substrate, 5 µl ICE in 500 µl, pH 7.5): 0.05 uM AMC/min
- rate constant that describes the approach to steady state ([2]; lag phase, determined by the amount of coupling enzyme (50 µl LAPM, 12.5 units/ml stock)): 0.44 + 0.01 min -1

- half-life for the slow onset of inhibition [3, 5]: 2.7 min
- rate constant for inhibition [3, 5]: 0.25 min-^1
- inhibition ([3]; slow onset of inhibition, value eventually approached, 5 µl of sample 2µM in 500 µl): ~100%
- kind of inhibition ([3]; substrate Ac-Tyr-Val-Ala-Asp-AMC, 5 µl of sample 2µM in H2O in 500 µl, pH 7.5): slow, tight-binding inhibitor
Compound: N-(N-acetyl-tyrosinylvalinyl-alaninyl)-3-amino-4-oxo butanoic acid [Compound Z]

- initial velocity ([3]; uninhibited initial velocity of substrate cleavage in the presence of compound Z, pH 7.5): 0.05 uM AMC produced/min
- rate [4]: 0.005 mM AMC/min
- 100% relative fluoroscence achieved in ([4]; 1µM AMC = 100% relative fluorescence): 20 min
Compound: CC(=O)N[C@@H](Cc1ccc(O)cc1)C(=O)N[C@H](C(=O)N[C@@H](C)C(=O)N[C@@H](CC(=O)O)C(=O)Nc1ccc2c(C)cc(=O)oc2c1)C(C)C [Ac-Tyr-Val-Ala-Asp-AMC, N-(N-Acetyl-tyrosinyl-valinyl-alaninyl)-aspartic acid a-7-amino-4-methylcoumarin amide]

— EP0533226A2, “Novel chromophore containing compounds” (MERCK & CO. INC., priority 1991, dated 1993)
